The nature of data set [1]: Rat oral pharmacokinetics. Format: in vivo, Male Sprague-Dawley rats. The conditions noted are these: rats, oral 20 mg FMN/kg. The protocol:
The study was carried out in rats at a 20 mg FMN/kg dose. The plasma concentration profiles and the PK parameters are presented in Figure 9 and Table 4, respectively.
The experiments were carried out in accordance with the Guidelines for Animal Experimentation of Nonclinical Center, Chaon Co. Ltd. (Yongin, Republic of Korea) and approved by the Animal Ethics Committee of the institution (CE23665) on 13 February 2024. Male Sprague−Dawley rats (230−300 g, 8 weeks) were obtained from Dae Han Bio Link Co., Ltd. (Eumseong-gun, Republic of Korea). All rats had free access to food and water in a controlled environment for one week. […] After stirring for 5 min at 37 °C, an appropriate volume (about 200 μL) of suspension was delivered via oral gavage at a dosage of 20 mg/kg body weight. Approximately 300 μL blood samples were obtained from tail veins and placed into tubes pretreated with sodium citrate before and after 0.25, 0.5, 1, 2, 4, 8, and 24 h of dosing. Blood samples were immediately centrifuged at 5000 rpm for 10 min. All the plasma samples were stored at −80 °C until analysis. FMN from plasma samples were prepared for analysis by liquid–liquid extraction using methyl tert-butyl ether according to the following steps: 60 µL internal standard (IS) solution (10 ng/mL in 50% methanol) was added to 70 µL plasma sample and […] was placed in a 15 mL tube. The sample solution was vortexed for 10 min followed by centrifugation for 5 min at 4000 rpm. The upper organic layer was transferred to a clean test tube and evaporated on a heating block at 50 °C under nitrogen. The residue was dissolved in the 50% acetonitrile (900 µL, in 0.1% formic acid) and mixed on a vortex mixer for 30 s. Resulting sample solution was transferred to auto-sampler vials, and 5 µL aliquot was injected into the LC/MS/MS system for analysis of FMN by a validated method as described below.
The pharmacokinetic data were analyzed by Winnlene (China Pharmaceutical University, Nanjing, China), using the noncompartmental method to calculate the peak plasma concentration (Cmax), the time to reach Cmax (Tmax), and the area under the plasma concentration−time curve (AUC).
FMN quantitative analysis was carried out using Agilent 1200 system (Agilent, Waldbronn, Germany) with triple quadrupole mass spectrometry API5000 (ABSciex, Vaughan, ON, Canada) operated in negative electrospray ionization using MRM mode. A Luna C8(2) column (2.1 mm I.D., 100 mm length, 5 μm; Phenomenex, Torrance, CA, USA) was maintained at 40 °C. Gradient elution was carried out at a flow rate of 0.3 mL/min using mobile phase A (distilled water) and mobile phase B (acetonitrile). The gradient applied was as follows: from 0 to 2.5 min, 50% B; from 2.6 to 7.0 min, 95% B; and from 7.1 to 11.5 min, 50% B. Sample volumes of 5 μL were injected. The fragmentation transitions were m/z 267.1 → 252.0 for FMN and m/z 197.0 → 92.0 for […], respectively. Optimized instrument settings specific for FMN and IS were as follows: curtain gas, 20 psi; ion source gas 1, 50 psi; ion source gas 2, 50 psi; ion spray voltage, −4500 V; turbo heater temperature, 650 °C. The precursor ions of FMN and IS were formed using declustering potentials of −90 and −40 V, respectively, and their precursor ions were fragmented at collision energies of −28 and −42 eV by collision-activated dissociation with nitrogen at a pressure setting of 5 (arbitrary units). Both quadrupoles were maintained at unit resolution. The ratio of the standard to IS peak area was used for calibration by linear regression analysis.

A short description of data set [2]: Physical stability test (PXRD after storage). The format is physicochemical. The protocol: Powder samples in closed glass vials were stored at 4 and 40 °C. They were then analyzed by PXRD for crystallization at given time points. PXRD measurement conditions were the same as described above.
Data set [3] is described as follows: Powder dissolution experiment in bio-relevant media (FaSSGF, FaSSIF). The conditions noted are these: 37 °C.
Experimental: Bio-relevant media, FaSSGF and FaSSIF, were used for powder dissolution tests to mimic in vivo environments.
Powder samples were sieved through a 300 µm sieve. FaSSGF and FaSSIF were prepared according to the literature, except pepsin was not included in FaSSGF [41]. Samples equivalent to 5 mg of FMN were added to 20 mL glass vials containing 10 mL of FaSSGF or FaSSIF. Sample vials were placed in a shaking incubator (SIF-6000R, Jeio Tech, Daejeon, Republic of Korea) at 37 °C. Aliquots (1 mL) were collected at designated time points and filtered through a 0.45 µm PVDF filter and diluted with the HPLC mobile phase for HPLC analysis. Additional test for cocrystal was carried out in the presence of PVP K30 (2.5 mg/mL) in FaSSGF or FaSSIF.
FMN quantitative analysis was carried out using a Shimadzu system (Japan) equipped with a C8 column (5 μm, 4.6 mm I.D., and 150 mm length, Waters, Milford, MA, USA) at room temperature. The mobile phase was composed of methanol/water (60:40, v/v). Samples were injected in a volume of 10 μL with a total flow rate set at 1.0 mL/min. Detection was carried out at a UV wavelength of 254 nm. The area of the standard was used for calibration by linear regression analysis.
Where [4] appears, read: plasma FMN, suspension in 1% PVP-K30, n = 4.

Entries after “also recorded” stand apart in the source; their conditions may differ. Read-outs that look alike come from different tables or passages of the source.

The record followed here is publication PMC11597446, “Using the Cocrystal Approach as a Promising Drug Delivery System to Enhance the Dissolution and Bioavailability of Formononetin Using an Imidazole Coformer” (Pharmaceuticals, 2024).

`COc1ccc(-c2coc3cc(O)ccc3c2=O)cc1` [FMN, Formononetin]: the AUC(0-inf) in data set [1] (male, Sprague-Dawley, rat, 20 mg/kg, plasma FMN, crystalline FMN suspension in 1% PVP-K30, n = 4) was 16.4 ± 1.51 ng·h/mL. This compound also gave an AUC(0-t) in data set [1] (male, Sprague-Dawley, rat, 20 mg/kg, plasma FMN, crystalline FMN suspension in 1% PVP-K30, n = 4, mean ± SD) of 10.4 ± 3.19 ng·h/mL. The Cmax in data set [1] (male, Sprague-Dawley, rat, 20 mg/kg, plasma FMN, crystalline FMN suspension in 1% PVP-K30, n = 4, read-out: Cmax) was determined as 1.81 ± 0.73 ng/mL. The compound also showed a half-life in data set [1] (male, Sprague-Dawley, rat, 20 mg/kg, plasma FMN, suspension in 1% PVP-K30, n = 4) of 426 ± 201 min. For the same compound, in data set [1] (male, Sprague-Dawley, rat, 20 mg/kg, plasma FMN, suspension in 1% PVP-K30, n = 4, read-out: Tmax), the time to peak (Tmax) was found to be 5 ± 2 h.

With “formononetin-imidazole [FMN-IMD cocrystal]”, in data set [1] (setting [4]), the AUCinf was 44.52 ± 19.11 ng·h/mL, the peak concentration (Cmax) came out at 8.93 ± 6.66 ng/mL, the T1/2 was 5.60 ± 2.19 h and the Tmax was found to be 0.44 ± 0.38 h. This compound gave an AUCt in data set [1] (plasma FMN, suspension in 1% PVP-K30, n = 4, mean ± SD) of 37.38 ± 20.97 ng·h/mL. Moreover, in data set [1], the “increase in AUC compared to crystalline FMN” value worked out at 3.58 fold and the “increase in Cmax compared to crystalline FMN” value was found to be 4.93 fold. Also, the “physical stability (PXRD) after storage” value in data set [2] (six months at 4 and 40 °C, closed glass vials) is “remained the same for six months”. The “physical stability (PXRD) after storage” value in data set [2] (six months at 40 °C) is “no changes in the PXRD; also recorded: stable for six months”. For the same compound, the “dissolution rate and concentration at 6 h compared with crystalline FMN” value in data set [3] is “faster dissolution rate and higher concentration at the 6-h time point”.

In general, AUC(0-inf) refers to the area under the concentration-time curve extrapolated to infinity. A higher AUC(0-inf) goes with high exposure. Usually AUC(0-t) stands for the area under the concentration-time curve up to a stated or last time point. Low values mean low exposure, high ones high exposure. Usually Cmax stands for the highest concentration seen after dosing. The half-life is how long it takes for the measured level to halve. A high value points to slow decline. As usually defined, the Tmax is the time from dosing to the highest level.
